Reference: patent US20160024051A1, “SALTS AND SOLID FORMS OF ISOQUINOLINONES AND COMPOSITION COMPRISING AND METHODS OF USING THE SAME” (INFINITY PHARMACEUTICALS, INC., priority 2013, published 2016)
Structures can show the parent of a compound that is named as a salt. Where two headings read alike, the source gives them in different places.

Experiments:
[1] = PK properties in non-clinical animal species (all species); type: in vivo, CD-1 mouse, Wistar rat, Cyno monkey, Beagle dog; details: animal pharmacology models and non-clinical toxicology species
Method: For example, Compound 1 bis-hydrogen sulfate monohydrate was evaluated in CD-1 mouse, Wistar rat, Cyno monkey, and Beagle dog. Cross species allometric scaling of CL (drug clearance) and Vss (volume at steady state) predicts low CL, high Vss and long T112 for Compound 1 in humans.

[2] = 2-Week comparative stability studies; type: physicochemical; details: 2 weeks; for change in appearance: 5° C. (closed), ambient (closed), ambient (closed-exposed to light), ambient (open), 60° C. (closed), RT/75% RH (open), 40° C./75% RH (open); for change of water content, as determined by KF: all seven storage conditions
Method: (closed); (ii) ambient (closed); (iii) ambient (closed-exposed to light); (iv) ambient (open); (v) 60° C. (closed); (vi) RT/75% RH (open); and (vii) 40° C./75% RH (open).

[3] = Solubility of bis-sulfuric acid salt Form 1 in solvents at 50° C.; type: physicochemical
Method: (§1) Bis-Sulfuric acid salt Form 1 of Compound 1 (ca. 35 mg) was weighed into vials. The corresponding solvents and solvent mixtures were added in portions of (a total of) 5, 10, 20, and 30 volumes at 50° C., with shaking, aiming for clear solutions. After each addition, the vials were allowed to shake for 20 minutes, after which observations were made. Solutions were allowed to evaporate, whereas slurries were set for 8 hour temperature cycling maturation, between RT and 50° C., for 5 days.

[4] = Solubility of free base hydrate and salts versus pH (Table 24); type: physicochemical
[5] = Polymorphism study: maturation (temperature cycling RT to 50° C.) in solvents, XRPD; type: physicochemical
Method: One of 21 solvents was added to each vial in a number of aliquots (up to 30 volumes), with shaking. All the samples were then placed under maturation between RT to 50° C. (4 hours at each temperature) for 3 days. After maturation the samples were analysed by XRPD. Clear solutions were cooled to −20° C. (freezer). If no precipitation occurred samples were evaporated at RT.
Samples were placed under maturation between RT-50° C. (4 hours cycle) for 3 days. After maturation the samples were analyzed by XRPD. Clear solutions were then cooled to −20° C. (freezer). If no precipitation occurred, samples were evaporated at RT.
as §1, with “The” for “Bis-Sulfuric acid salt Form 1 of Compound 1 (ca. 35 mg) was weighed into vials. The”
The oils obtained by solvent evaporation were used for the maturation screen. Anhydrous solvents (5 volumes; 100 μL) were used in order to minimise the amount of water present. Any solutions were allowed to slowly evaporate, whereas slurries were set for 8 hour temperature cycling maturation, between RT and 50° C. […] These were matured for a further 24 hours before performing XRPD analysis.
The selected solvents and solvent mixtures (5 to 20 volumes) were added with stirring. Any solutions were allowed to slowly evaporate, whereas slurries were set for 8 hour temperature cycling maturation, between RT and 50° C., for 2 days.
Crystals were ground in order to analyse them by XRPD. Suspensions were set for temperature cycling for a total of five days after which time XRPD analysis was carried out.

[6] = Storage at 40° C./75% RH (elevated humidity) for 1 week, re-analysis by XRPD/HPLC; details: salt screen solids, 1 week, XRPD pattern or observation
Method: The crystalline solids were filtered, dried at ambient conditions, and stored at 40° C./75% RH for 1 week and analyzed by ^1H NMR/IC.
Samples from the screen using amorphous free base Compound 1 were analysed by ^1H-NMR and DSC, and re-analysis by XRPD was also carried out after drying at 50° C./vacuum and storage at 40° C./75% RH (the same sample was dried and stored at elevated humidity).

[7] = Gravimetric vapour sorption (GVS); type: physicochemical
Method: Sorption isotherms were obtained using a Hiden IGASorp moisture sorption analyser, controlled by CFRSorp software. The sample temperature was maintained at 25° C. by a Huber re-circulating water bath. The humidity was controlled by mixing streams of dry and wet nitrogen, with a total flow rate of 250 ml/min. The relative humidity (RH) was measured by a calibrated Vaisala RH probe (dynamic range of 0-95% RH), located near the sample. The weight change, (mass relaxation) of the sample as a function of % RH was constantly monitored by the microbalance (accuracy ±0.001 mg). Typically 10-20 mg of sample was placed in a tared mesh stainless steel basket under ambient conditions. The sample was loaded and unloaded at 40% RH and 25° C. (typical room conditions). A moisture sorption isotherm was performed as outlined below (2 scans giving 1 complete cycle). The standard isotherm was performed at 25° C. at 10% RH intervals over a 0-90% RH range.
The software uses a least squares minimisation procedure together with a model of the mass relaxation, to predict an asymptotic value. The measured mass relaxation value must be within 5% of that predicted by the software, before the next % RH value is selected. The minimum equilibration time was set to 1 hour and the maximum to 4 hours. The sample was recovered after completion of the isotherm and re-analysed by XRPD.

[8] = Thermodynamic aqueous solubility; type: physicochemical; details: salts scaled-up at 0.5 gram
Dissolution = type: physicochemical
Method: The dissolution rate for the hydrate was about 80% in 15 min at pH 1.2 and about 20% in 60 min at pH 2.5. The dissolution rate of the bis-sulfuric acid salt was 100% in 15 min at both pH 1.2 and pH 2.5.

[9] = Density and flowability (Hausner ratio, Carr index); type: physicochemical
Text: The Hausner ratio and the Carr index are correlated to the flowability of a powder or granular material. […] The flowability of both salts are acceptable for manufacturing.

[10] = Stability of Hydrate Form 2: maturation in water or acetic acid: water 1:3 at constant temperature; type: physicochemical; details: 40 hours
Method: Both solids obtained from maturation at 25° C.

[11] = Solubility assessment using FB Hydrate Form 2; type: physicochemical
Method: The best solvent systems (clear solutions) were methanol:anisole 1:1 and DMSO (10 volumes, at RT), dioxane (10 volumes, 50° C.), chloroform (20 volumes, RT). […]

[12] = Storage at 25° C./93% RH for 1 week, re-analysis by XRPD/HPLC; type: physicochemical; details: 1 week

COc1cc(-c2cccc3cc([C@H](C)Nc4nc(N)ncc4C#N)n(-c4ccccc4)c(=O)c23)ccn1 [bis-sulfuric acid monohydrate salt of (S)-2-amino-4-((1-(8-(2-methoxypyridin-4-yl)-1-oxo-2-phenyl-1,2-dihydroisoquinolin-3-yl)ethyl)amino)pyrimidine-5-carbonitrile]
oral pharmacokinetics [1]: good oral pharmacokinetics | change in appearance [2]: No change in appearance | change of water content, as determined by KF [2]: No significant change | volumes of solvent giving a clear solution ([3]; acetic acid/water 1:3 at 50° C.): 5 volumes | volumes of solvent giving a clear solution ([3]; methanol at 50° C.): 5 volumes | Solubility ([4]; Simulated Gastric Fluid, thermodynamic from solid, read-out: Solubility): > 17 mg/mL | Solubility ([4]; Simulated Intestinal Fluid, fassgf or other biorelevant, thermodynamic from solid, read-out: Solubility): 0.04 mg/mL | Solubility ([4]; aqueous buffer, thermodynamic from solid, citrate buffer, pH 2.5, at 37° C., read-out: Solubility): > 12 mg/mL | Solubility ([4]; aqueous buffer, thermodynamic from solid, citrate buffer, pH 2.5, at RT, read-out: Solubility): > 12 mg/mL | Solubility ([4]; aqueous buffer, thermodynamic from solid, pH 1.65, 37° C., read-out: Solubility): > 12 mg/mL | Solubility ([4]; aqueous buffer, thermodynamic from solid, pH 1.65, RT, read-out: Solubility): > 12 mg/mL | Solubility ([4]; aqueous buffer, thermodynamic from solid, pH 1.9, 37° C., read-out: Solubility): > 12 mg/mL | Solubility ([4]; aqueous buffer, thermodynamic from solid, pH 1.9, RT, read-out: Solubility): > 12 mg/mL | Solubility ([4]; aqueous buffer, thermodynamic from solid, pH 2.5, 37° C., read-out: Solubility): > 12 mg/mL | Solubility ([4]; aqueous buffer, thermodynamic from solid, pH 2.5, RT, read-out: Solubility): > 12 mg/mL | Solubility ([4]; aqueous buffer, thermodynamic from solid, pH 3.0, 37° C., read-out: Solubility): 3.45 mg/mL | Solubility ([4]; aqueous buffer, thermodynamic from solid, pH 3.0, RT, read-out: Solubility): 1.58 mg/mL | Solubility ([4]; aqueous buffer, thermodynamic from solid, pH 3.8, 37° C., read-out: Solubility): 0.28 mg/mL | Solubility ([4]; aqueous buffer, thermodynamic from solid, pH 3.8, RT, read-out: Solubility): 0.29 mg/mL | Solubility ([4]; simulated gastric fluid, thermodynamic from solid, 0.1N HCl, 37° C., at saturation, read-out: Solubility): > 90 mg/mL | Solubility ([4]; thermodynamic from solid, Water (pH 1.16), read-out: Solubility): > 60 mg/mL | solubility compared to the hydrate ([4]; up to pH 3): significantly higher solubility | changes on maturation of slurries ([5]; 30 volumes of solvent, RT to 50° C., five days, all solvents other than acetic acid/water, methanol, ethanol/water): did not show any changes | Storage 40° C./75% RH [6]: salt Pattern 1 | GVS Single cycle ([7]; hygroscopicity in words, 25° C.): Slightly hygroscopic | Thermodynamic aqueous solubility [8]: > 51 mg/mL | dissolution rate (Dissolution; in 15 min at pH 1.2, listed as bis-sulfuric acid salt): 100% | dissolution rate (Dissolution; in 15 min at pH 2.5): 100% | flowability compared to the hydrate [9]: improved flowability

COc1cc(-c2cccc3cc([C@H](C)Nc4nc(N)ncc4C#N)n(-c4ccccc4)c(=O)c23)ccn1 [Form 2 of the free base of Compound 1]
XRPD form after maturation ([10]; acetic acid: water 1:3, 25° C.): unchanged Form 2 | XRPD form after maturation ([10]; acetic acid: water 1:3, 90° C.): some evidence of the acetic acid solvate Form 6 mixed with a majority of Form 2 | XRPD form after maturation ([10]; pure water, 25° C.): unchanged Form 2 | XRPD form after maturation ([10]; pure water, 90° C.): Form 2 | change in appearance [2]: No change in appearance | change of water content, as determined by KF [2]: No significant change | volumes of solvent giving a clear solution ([11]; 2-methyltetrahydrofuran): 50 volumes | volumes of solvent giving a clear solution ([11]; DCM): 100 volumes | volumes of solvent giving a clear solution ([11]; DCM:methanol 1:1): 100 volumes | volumes of solvent giving a clear solution ([11]; DME): 100 volumes | volumes of solvent giving a clear solution ([11]; DMSO, at RT): 10 volumes | volumes of solvent giving a clear solution ([11]; THF): 100 volumes | volumes of solvent giving a clear solution ([11]; THF:5% water): 50 volumes | volumes of solvent giving a clear solution ([11]; acetonitrile/5% water): 100 volumes | volumes of solvent giving a clear solution ([11]; chloroform, RT): 20 volumes | volumes of solvent giving a clear solution ([11]; dioxane, 50° C.): 10 volumes | volumes of solvent giving a clear solution ([11]; ethanol:anisole): 50 volumes | volumes of solvent giving a clear solution ([11]; methanol): 100 volumes | volumes of solvent giving a clear solution ([11]; methanol:anisole 1:1, at RT): 10 volumes | Solubility ([4]; 0.1N HCl, 37° C., at saturation): 16 mg/mL | Solubility ([4]; Simulated Gastric Fluid): 8.13 mg/mL | Solubility ([4]; Simulated Intestinal Fluid): 0.002 mg/mL | Solubility ([4]; citrate buffer, pH 2.5): 0.2-0.3 mg/mL ^ | stability on storage at 25° C./93% RH [12]: stable | stability on storage at 25° C./93% RH ([12]; listed as Free base Form 2): mainly the same pattern with a few differences | XRPD form after maturation in acetic acid: water 1:1 ([5]; three days, listed as hydrate Form 2 of free base Compound 1): did not show any changes in form | GVS: changes in the XRPD after the experiment [7]: very slight changes | GVS: moisture uptake on loading ([7]; between 40-50% RH): 1 % w/w | GVS: moisture content on desorption ([7]; between 90-10% on desorption): 5.7 % w/w | dissolution rate (Dissolution; in 15 min at pH 1.2, listed as hydrate): about 80% | dissolution rate (Dissolution; in 60 min at pH 2.5): about 20%
